{"source": "paper PMC9570995", "about": "“Design, Synthesis, and Biological Evaluation of Novel Dihydropyridine and Pyridine Analogs as Potent Human Tissue Nonspecific Alkaline Phosphatase Inhibitors with Anticancer Activity: ROS and DNA Damage-Induced Apoptosis” (Molecules, 2022)", "key": {"[1]": {"molecular_target": "T1, human tissue nonspecific alkaline phosphatase (h-TNAP) (Homo sapiens, UniProt P05186)", "T1 sequence (P05186 18-524)": "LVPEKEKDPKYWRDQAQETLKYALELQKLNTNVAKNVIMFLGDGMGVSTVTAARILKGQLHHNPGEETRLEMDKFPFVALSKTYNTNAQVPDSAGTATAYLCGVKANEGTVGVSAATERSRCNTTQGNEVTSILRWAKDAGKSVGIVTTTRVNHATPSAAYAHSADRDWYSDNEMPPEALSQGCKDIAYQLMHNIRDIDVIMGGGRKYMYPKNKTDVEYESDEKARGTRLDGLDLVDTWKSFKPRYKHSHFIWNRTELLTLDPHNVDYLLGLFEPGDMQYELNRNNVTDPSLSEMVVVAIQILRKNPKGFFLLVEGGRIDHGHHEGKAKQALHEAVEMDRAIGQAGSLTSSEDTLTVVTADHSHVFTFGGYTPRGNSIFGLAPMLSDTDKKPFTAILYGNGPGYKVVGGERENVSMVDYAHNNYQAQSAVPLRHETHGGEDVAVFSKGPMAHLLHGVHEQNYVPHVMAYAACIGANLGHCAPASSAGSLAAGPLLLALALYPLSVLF", "assay": "Alkaline phosphatase inhibition assay (p-NPP substrate)", "type": "biochemical", "protocol": "The newly synthesized compounds were tested against human tissue nonspecific alkaline phosphatase (h-TNAP). The compounds were initially tested against the h-TNAP enzymes at 1 mM concentration. The assay buffer (pH 9.5) constituted of 50% glycerol, followed by tris-hydrochloride (50.0 mM), MgCl2 (5.0 mM), and ZnCl2 (0.1 mM) in the solution. The enzyme substrate p-nitrophenyl phosphate (p-NPP) and all the required test compounds were diluted to the required concentration by a dilution buffer method. In a 96-well plate, the assay was started by adding 70 µL of assay buffer followed by 10.0 µL of the test compound (from 1 mM), 10.0 µL of the enzyme (0.5 µL/mL) and then subsequently incubating at 37 °C for 10 min. The reaction was initiated with the addition of 10.0 µL of substrate (5.0 mM p-NPP) into each well and incubated for an additional 30 min.\nPercent inhibition was calculated by the formula:% Inhibition = [100 − (abs of test comp/abs of control) × 100]"}, "Herring sperm DNA": {"tested_on": "Herring sperm DNA", "assay": "Fluorescence emission titration with DNA", "type": "binding", "details": "compound 10 µM, DMF/H2O (1:9, v/v)", "protocol": "The fluorescence emission studies of compound 4d (10 µM) were accomplished in DMF/H2O (1:9, v/v) before and after the continual addition of DNA (0–50 µg/mL) to probe out the compound-DNA interaction. […] As evident in Figure 8, the fluorescence emission of compound 4d was attenuated by ~55% (calculated through I0/I) upon the maximum addition of 50 µg/mL of DNA. The substantial fluorescence quenching behavior of 4d upon the addition of DNA is perhaps attributed to the efficient binding of the compound to the minor groove of DNA [68]. […] Next, the excellent binding efficiency of compound 4d with DNA was well elucidated through the Stern–Volmer (SV) plot, which was produced between the increased fluorescence quenching efficiency and increasing concentration of DNA solution. […]\nReagent grade solvents were used for purification purposes. Silica gel with 70–230 mesh size and pure solvents were used for the column chromatography. ^1H, ^13C, and DEPT-135 NMR spectra were recorded on a 400 MHz spectrometer using DMSO as the solvent and TMS as the internal standard. The chemical shifts, multiplicity, and coupling constants were calculated from data obtained through the FID file. […] The IC50 and percent inhibition were calculated by using GraphPad software. […] The optical density was measured through a microplate reader at 570 nm. […]"}}, "note": "Where two headings read alike, the source gives them in different places."}
{"smiles": "N#CC1=C(N)N(Cc2ccccc2)C(N)=C(C#N)C1c1ccc2ccccc2c1", "note": "[Compound 4d, 2,6-Diamino-1-benzyl-4-(naphthalen-2-yl)-1,4-dihydropyridine-3,5-dicarbonitrile]", "values": [{"measurement": "IC50", "setting": "[1]; Table 2, unit given in Table 1, read-out: Alkaline Phosphatase (h-TNAP) IC50", "result": "1320 ± 260", "unit": "nM"}, {"measurement": "fold more potent than levamisole", "setting": "[1]; h-TNAP IC50 compared with levamisole", "result": "about seventeen-fold"}, {"measurement": "IC50", "setting": "[1]; h-TNAP, assay buffer pH 9.5, Table 1 and text, read-out: IC50 + SEM", "result": "1320 ± 260", "unit": "nM"}, {"measurement": "Stern–Volmer constant (Ksv)", "setting": "Herring sperm DNA; DNA 0–50 µg/mL", "result": 34100, "unit": "M⁻¹"}, {"measurement": "attenuation of fluorescence emission", "setting": "Herring sperm DNA; 50 µg/mL DNA, emission 410 nm", "result": "~ 55%"}]}
